In patent US7304046B2, “Phosphoramide compounds” (priority 1999, dated 2007):

Experiments:
human tumor cell lines = experiment: Growth inhibition, MTT assay, series of human tumor cell lines (all cell lines); format: cell-based; conditions: all cell lines of Table 2, 72-h drug exposure
Experimental: (§1) The growth inhibitory properties of representative compounds of the invention were also determined by evaluating their growth inhibitory activity against a series of human tumor cell lines using a 72-h drug exposure. Cell counts were measured using the MTT assay.

A549 (lung) = experiment: Growth inhibition, MTT assay, A549; format: cell-based, human; conditions: A549, 72-h drug exposure, read-out: IC50 growth inhibitory activity
Experimental: as §1

HT-29 (colon) = experiment: Growth inhibition, MTT assay, HT-29; format: cell-based, human; conditions: HT-29, 72-h drug exposure, read-out: IC50 growth inhibitory activity
Experimental: as §1

A498 (kidney) = experiment: Growth inhibition, MTT assay, A498; format: cell-based, human; conditions: A498, 72-h drug exposure, read-out: IC50 growth inhibitory activity
Experimental: as §1

[1] = Nucleophilic activation with sodium dimethyldithiocarbamate (DDTC) monitored by 31P NMR; format: physicochemical; conditions: DDTC 3 equiv, 3:4 THF:0.4 M cacodylate buffer, pH ~7.3, RT
Experimental: The quinone was dissolved in CH3CN (0.3 mL, or THF for 16a) and the activating agent (glutathione, or sodium dithionite) was dissolved in cacodylate buffer (0.4 mL, 0.4 M, pH 7.7). The buffer solution was added to the organic solution and the pH of the mixture was adjusted to ˜7.4. The reaction mixture was transferred to a 5-mm NMR tube, and the data acquisition was started (pulse delay 30 μs). Spectra were taken every 2.5 minutes for 0.5 h, then every 5 min for 0.5 h, then every 10 min for 1 h, and time points for each spectrum were assigned from the initiation of the reaction. Chemical shifts are reported relative to the TPPO reference. The temperature of the probe was maintained at 37° C., if necessary, using the Bruker variable temperature unit. The relative concentrations of the intermediates were determined by measuring the peak areas.
The Michael addition of sulfur nucleophiles to naphthoquinones is well known; and addition to the 3-position of the quinone might provide another pathway for phosphorodiamidate anion release. Two possible products could be predicted from the Michael addition of a nucleophile to the naphthoquinone. […] Activation of 16a with DDTC (3 equiv, 3:4 THF:0.4 M cacodylate buffer, pH˜7.3, RT) was monitored using ^31P NMR. […]

BE cells = experiment: Test A: in vitro cytotoxicity, clonogenic survival of BE cells; format: cell-based; conditions: 2 h drug treatment, colonies after 10 days, concentration at which there is a 1% cell survival
Excerpt: (§2) Test A: In Vitro Cytotoxicity (Clonogenic Survival of HT-29 and BE Cells):
(§3) The human colon carcinoma cell line HT-29 was obtained from the American Type Culture Collection (ATCC), and the BE cell line was provided by Dr. D. Ross, University of Colorado. A modification of the procedure described by Miribelli et al Cancer Research, 1985, 45, 32–39 was used to determine the clonogenic survival of the cells. HT-29 and BE cells in exponential growth were suspended in unsupplemented Eagles MEM medium (10 mL) at a final density of 1.7–2×10^5 cells/mL. Unsupplemented medium contains Minimum Essential Medium (Gibco) and HEPES (0.02 M). The drug stock solutions (0.1–40 mM) were prepared using either ethanol or dimethyl sulfoxide as solvent. The maximum amount of DMSO or ethanol used in the drug treatments was 1% of the total volume. Appropriate volumes (6.5 to 100 μL) of the drug stock solution were added to five vials of the cell suspensions, to give five different final drug concentrations, and 100 μL of solvent was added to a sixth vial for a control. The treated cells were incubated for 2 h (37° C., 5% CO2). The cells were spun down and rinsed three times with supplemented medium (3 mL) and then diluted in 5 mL of supplemented medium. Supplemented medium is prepared by adding Fetal Bovine Serum (10%), gentamicin (0.05 mg/mL), L-glutamine (0.03 mg/mL), and sodium pyruvate (0.1 mM) to unsupplemented medium. The cells were counted using a Coulter Counter and then plated at 2–3 different densities for each drug concentration and incubated for 10 days. The colonies were stained with 0.5% crystal violet in 95% ethanol and those colonies comprised of 50 or more cells were counted using a microscope and pen-style counter. The LC99 of each compound (the concentration at which there is a 1% cell survival) was determined by plotting the log surviving fraction vs. drug concentration.

HT-29 cells = experiment: Test A: in vitro cytotoxicity, clonogenic survival of HT-29 cells; format: cell-based, human; conditions: 2 h drug treatment, colonies after 10 days, concentration at which there is a 1% cell survival
Excerpt: as §2, §3

PC-3 (prostate) = experiment: Growth inhibition, MTT assay, PC-3; format: cell-based, human; conditions: PC-3, 72-h drug exposure, read-out: IC50 growth inhibitory activity
Experimental: as §1

UMUC3 (bladder) = experiment: Growth inhibition, MTT assay, UMUC3; format: cell-based, human; conditions: UMUC3, 72-h drug exposure, read-out: IC50 growth inhibitory activity
Experimental: as §1

IGROV (ovarian) = experiment: Growth inhibition, MTT assay, IGROV; format: cell-based, human; conditions: 72-h drug exposure, read-out: IC50 growth inhibitory activity
Experimental: as §1

[2] = test system: A4982LM cell line, a sub-line of the A498 human kidney carcinoma; experiment: Xenograft model, human tumor cells subcutaneously in nude mice; format: in vivo; conditions: Day 38, single dose of 25 mg/kg subcutaneously
Experimental: The cytotoxic properties of a compound of the invention can also be determined using in vivo pharmacological models which are well known to the art. For example, compound 16a was tested in a xenograft model. This assay consisted of injecting nude mice subcutaneously with human tumor cells. The tumors were allowed to grow until a measurable mass was present (22 days), and a single dose of 16a was administered subcutaneously. The tumor size was measured periodically and the growth inhibition of the tumor was determined. The A4982LM cell line, a sub-line of the A498 human kidney carcinoma, was used for the xenograft assay. The A4982LM sub-line, which has a high DT-diaphorase level (1010 nmol cytochrome c reduced/min/mg protein), was developed by implanting the A498 cell line in mice and collecting the lung metastases that formed from the original tumor.

MDA231 (breast) = experiment: Growth inhibition, MTT assay, MDA231; format: cell-based, human; conditions: MDA231, 72-h drug exposure, read-out: IC50 growth inhibitory activity
Experimental: as §1

PaCa-2 (pancreas) = experiment: Growth inhibition, MTT assay, PaCa-2; format: cell-based, human; conditions: PaCa-2, 72-h drug exposure, read-out: IC50 growth inhibitory activity
Experimental: as §1

NP(=O)(OCC1=CC(=O)c2ccccc2C1=O)N(CCBr)CCBr (stereo not shown) [Compound 16a, 2-(1,4-Naphthoquinonyl)methyl N,N-bis(2-bromoethyl) phosphorodiamidate]
IC50 in words, against all cell lines (human tumor cell lines): low micromolar range | IC50 (A549 (lung)): 4.58 µM | IC50 (HT-29 (colon)): 15.3 µM | IC50 (A498 (kidney)): 15.6 µM | time until quinone resonance disappeared and was replaced by phosphorodiamidate anion resonance [1]: ≤ 5 min | LC99 (BE cells): 4.6 µM | LC99 (HT-29 cells): 7.8 µM | IC50 (PC-3 (prostate)): 9.19 µM | IC50 (UMUC3 (bladder)): 2.82 µM | IC50 (IGROV (ovarian)): 18.9 µM | growth inhibition of the tumor [2]: 40% | IC50 (MDA231 (breast)): 14.7 µM | IC50 (PaCa-2 (pancreas)): 4.42 µM
